In patent US9205108B2, “Treatment of traumatic brain injury by using gallium compounds to reduce oxidative stress levels” (priority 2012, dated 2015):

Experiments:
[1] = test system: protein carbonyls; assay: Protein carbonyl analysis (slot blot, 2,4-DNP) of whole brain homogenate after controlled cortical contusion; format: in vivo, C57BL/6NHsd mice; conditions: for Protein carbonyl: difference compared to control (sham): whole brain homogenate
Description: (§1) Twenty C57BL/6NHsd mice were used for a study. Mice were set into five groups: sham, 15 minutes saline, 15 minutes gallium, 30 minutes gallium, and 30 minutes saline. A moderate controlled cortical contusion was given to all animals except the four animals in the sham group. The 15 minutes gallium group was injected with 10 mg/kg gallium nitrate at 15 minutes post injury. The 15 minutes saline group was injected with saline at 15 minutes post injury. The 30 minutes gallium group was injected with 10 mg/kg gallium nitrate at 30 minutes post injury. The 30 minutes saline group was injected with saline at 30 minutes post injury. A sample size of 4 was used for each group except gallium nitrate treated samples at 15 minutes post injury (n=3), gallium nitrate treated samples at 30 minutes post injury (n=5), and saline treated animals at 30 minutes (n=3).
(§2) A gallium compound was delivered by injection, in particular, intraperitoneal injection. […] Due to this unequal pairing, statistics (Student's t-test) were performed using unpaired analysis. P values <0.05 were deemed significant. Western blots (slot blots) were run for all samples and immunoblotting was performed with the following antibodies 2,4-DNP (protein carbonyls) and anti-3-nitrotyrosine (protein nitration). All blots were run twice for reproducibility. All samples were compared to sham (craniotomy only, but no injury), which has been used as a baseline (control).
(§3) The two parameters for oxidative stress were run on whole brain homogenate using immunochemical detection.

[2] = test system: 3-nitrotyrosine (3-NT); assay: Protein nitration analysis (slot blot, anti-3-nitrotyrosine) of whole brain homogenate after controlled cortical contusion; format: in vivo, C57BL/6NHsd mice; conditions: for Protein nitration (3-NT): difference compared to control (sham): whole brain homogenate
Description: as §1, §2, §3
Protein nitration is determined by indexing levels of 3-nitrotyrosine (3-NT). […] The difference between saline groups and the gallium groups at 30 minutes was statistically significant.

[3] = 100-300 mg/m²/day over 5-7 days; cited from earlier work
[4] = 10 mg/kg intraperitoneal injection at 15 minutes post injury
[5] = 10 mg/kg intraperitoneal injection at 30 minutes post injury

O=[N+]([O-])[O-].O=[N+]([O-])[O-].O=[N+]([O-])[O-].[Ga+3] [Gallium nitrate, gallium nitrate]
Protein carbonyl: difference compared to control (sham) [1, 4]: 17.5% reduction | Protein carbonyl: difference compared to control (sham) [1, 5]: 6.6% reduction | Oxidative stress (protein carbonyls), result in words ([1]; both time points (15 and 30 minutes post injury)): reduction in oxidative stress | Protein nitration (3-NT): difference compared to control (sham) [2, 4]: 61.3% increase | Protein nitration (3-NT): difference compared to control (sham) [2, 5]: 18.1% increase | Levels of 3-NT, result in words ([2]; treatment at 15 minutes post injury): increase in the levels of 3-NT | Levels of 3-NT, result in words ([2]; treatment at 30 minutes post injury, difference to saline group statistically significant): significant reduction in the levels of 3-NT | Reduction of calcium excretion [3]: 70+18%
